From ChEMBL document CHEMBL1201862, “PubChem BioAssay data set” (2004) come the findings set out here.

Activity calls are given as the source filed them. Unless noted, no cut-off for these calls is given here.

What all share (assay type): functional
In experiment [1] the target is T1, Delta-type opioid receptor (Homo sapiens, UniProt P41143). Briefly: SAR Analysis of Antagonists of the DOR Receptor using an Image-Based Assay - Set 2. [Related pubchem assays (depositor defined):AID1777, AID1785, AID1786, AID1966, AID2133, AID2136, AID2284, AID2285, AID2357].
The target in experiment [2] is T2, Kappa-type opioid receptor (Homo sapiens, UniProt P41145). The experiment can be described thus: KOR antagonist analogs, beta-arrestin recruitment, SAR follow-up, cell-based, luminescence, set 2 (AID 2495).
The target of experiment [3] is T1, Delta-type opioid receptor. Briefly: SAR Analysis of Agonists of the DOR Receptor using an Image-Based Assay - Set 2. [Related pubchem assays (depositor defined):AID1777, AID1785, AID1786, AID1966, AID2133, AID2136, AID2284, AID2285, AID2370].
Experiment [4] addresses T2, Kappa-type opioid receptor. The experiment can be described thus: SAR analysis of Agonists of the Kappa Opioid Receptor (KOR) using an Image-Based Assay - Set 2. [Related pubchem assays (depositor defined):AID1777, AID1786, AID1966, AID2133, AID2136, AID2284, AID2285, AID2359].
The target of experiment [5] is T3, Mu-type opioid receptor (Homo sapiens, UniProt P35372). Briefly: SAR Analysis of Antagonists of the MOR Receptor using an Image-Based Assay - Set 2. [Related pubchem assays (depositor defined):AID1777, AID1785, AID1786, AID1966, AID2133, AID2136, AID2284, AID2285, AID2420].
Experiment [6] addresses T3, Mu-type opioid receptor. The experiment can be described thus: SAR Analysis of Agonists of the MOR Receptor using an Image-Based Assay - Set 2. [Related pubchem assays (depositor defined):AID1777, AID1785, AID1786, AID1966, AID2133, AID2136, AID2284, AID2285, AID2352].
The target of experiment [7] is T2, Kappa-type opioid receptor. Briefly: SAR analysis of small molecule agonists of the kappa opioid receptor via a luminescent beta-arrestin assay - Set 2. [Related pubchem assays (depositor defined):AID1777, AID1785, AID1786, AID1966, AID2133, AID2136, AID2284, AID449737].
Experiment [8] has as its target T2, Kappa-type opioid receptor. Briefly: SAR analysis of Antagonists of the Kappa Opioid Receptor (KOR) using an Image-Based Assay - Set 2. [Related pubchem assays (depositor defined):AID1777, AID1785, AID1786, AID1966, AID2133, AID2136, AID2284, AID2285, AID2348].
Experiment [9] has as its target Intestinal-type alkaline phosphatase (Mus musculus, UniProt P24822). The experiment can be described thus: PubChem AID 488785.
For experiment [10], the target named is Intestinal-type alkaline phosphatase (Homo sapiens, UniProt P09923). The experiment can be described thus: inhibition of human intestinal alkaline phosphatase – biochemical, dose response (AID 488876).
For experiment [11], the target named is T4, Alkaline phosphatase, tissue-nonspecific isozyme (Homo sapiens, UniProt P05186).
T4 sequence (P05186 whole entry): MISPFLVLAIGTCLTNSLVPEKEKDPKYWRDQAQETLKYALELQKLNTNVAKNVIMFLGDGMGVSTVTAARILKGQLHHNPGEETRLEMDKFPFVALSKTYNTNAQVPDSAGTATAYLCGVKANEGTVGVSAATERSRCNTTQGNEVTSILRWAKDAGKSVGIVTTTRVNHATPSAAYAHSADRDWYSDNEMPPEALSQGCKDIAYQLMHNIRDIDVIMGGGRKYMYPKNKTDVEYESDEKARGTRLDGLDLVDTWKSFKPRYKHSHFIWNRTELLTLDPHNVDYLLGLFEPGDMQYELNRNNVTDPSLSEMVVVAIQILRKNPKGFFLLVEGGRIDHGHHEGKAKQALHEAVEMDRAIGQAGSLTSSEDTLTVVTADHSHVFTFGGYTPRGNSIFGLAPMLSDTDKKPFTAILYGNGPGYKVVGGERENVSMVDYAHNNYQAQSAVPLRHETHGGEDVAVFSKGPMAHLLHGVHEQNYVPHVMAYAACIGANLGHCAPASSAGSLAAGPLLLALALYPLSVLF
The experiment can be described thus: TNAP enzyme inhibition by screening hits, dose response, selectivity assay for mouse IAP inhibitor project, biochemical, human TNAP, uHTS hits (AID 488906).

Experiment [12] concerns the target Metabotropic glutamate receptor 3 (Rattus norvegicus, UniProt P31422). Briefly: Modulation of the Metabotropic Glutamate Receptor mGluR4: Selectivity at mGluR3. [Related pubchem assays (depositor defined):AID2437, AID2807].
The target of experiment [13] is Metabotropic glutamate receptor 6 (Homo sapiens, UniProt O15303). Briefly: Modulation of the Metabotropic Glutamate Receptor mGluR4: Selectivity at mGluR6. [Related pubchem assays (depositor defined):AID2437, AID2807].
The target of experiment [14] is T5, Metabotropic glutamate receptor 4 (Rattus norvegicus, UniProt P31423). Briefly: Modulation of the Metabotropic Glutamate Receptor mGluR4: Selectivity at mGluR4. [Related pubchem assays (depositor defined):AID2437, AID2807].
Experiment [15] has as its target Metabotropic glutamate receptor 2 (Rattus norvegicus, UniProt P31421). Briefly: rat mGluR2 glutamate potency shift by compounds, selectivity assay for mGluR4 modulator project, cell-based (AID 2188).
The target of experiment [16] is Metabotropic glutamate receptor 7 (Rattus norvegicus, UniProt P35400). Briefly: Modulation of the Metabotropic Glutamate Receptor mGluR4: Selectivity at mGluR7. [Related pubchem assays (depositor defined):AID2437, AID2807].
Experiment [17] addresses Metabotropic glutamate receptor 5 (Rattus norvegicus, UniProt P31424). Briefly: Modulation of the Metabotropic Glutamate Receptor mGluR4: Selectivity at mGluR5. [Related pubchem assays (depositor defined):AID2437, AID2807].
In experiment [18] the target is Metabotropic glutamate receptor 1 (Rattus norvegicus, UniProt P23385). The experiment can be described thus: Modulation of the Metabotropic Glutamate Receptor mGluR4: Selectivity at mGluR1. [Related pubchem assays (depositor defined):AID2437, AID2807].
In experiment [19] the target is T5, Metabotropic glutamate receptor 4. The experiment can be described thus: Modulation of the Metabotropic Glutamate Receptor mGluR4: Rat PAM Potency. [Related pubchem assays (depositor defined):AID2437, AID2807].
Experiment [20] deals with Metabotropic glutamate receptor 8 (Rattus norvegicus, UniProt P70579). Briefly: Modulation of the Metabotropic Glutamate Receptor mGluR4: Selectivity at mGluR8. [Related pubchem assays (depositor defined):AID2437, AID2807].

T2 sequence (P41145 whole entry): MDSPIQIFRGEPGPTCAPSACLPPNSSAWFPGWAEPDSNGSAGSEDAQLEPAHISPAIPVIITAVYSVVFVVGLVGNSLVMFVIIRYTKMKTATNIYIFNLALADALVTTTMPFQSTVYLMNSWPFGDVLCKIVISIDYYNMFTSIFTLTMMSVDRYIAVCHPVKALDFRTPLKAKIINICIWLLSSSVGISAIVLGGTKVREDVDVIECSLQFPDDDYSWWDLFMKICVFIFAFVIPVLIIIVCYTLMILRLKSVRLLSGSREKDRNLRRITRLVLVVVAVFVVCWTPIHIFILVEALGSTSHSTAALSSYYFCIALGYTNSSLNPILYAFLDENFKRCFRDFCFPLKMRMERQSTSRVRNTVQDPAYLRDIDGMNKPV
T3 sequence (P35372 whole entry): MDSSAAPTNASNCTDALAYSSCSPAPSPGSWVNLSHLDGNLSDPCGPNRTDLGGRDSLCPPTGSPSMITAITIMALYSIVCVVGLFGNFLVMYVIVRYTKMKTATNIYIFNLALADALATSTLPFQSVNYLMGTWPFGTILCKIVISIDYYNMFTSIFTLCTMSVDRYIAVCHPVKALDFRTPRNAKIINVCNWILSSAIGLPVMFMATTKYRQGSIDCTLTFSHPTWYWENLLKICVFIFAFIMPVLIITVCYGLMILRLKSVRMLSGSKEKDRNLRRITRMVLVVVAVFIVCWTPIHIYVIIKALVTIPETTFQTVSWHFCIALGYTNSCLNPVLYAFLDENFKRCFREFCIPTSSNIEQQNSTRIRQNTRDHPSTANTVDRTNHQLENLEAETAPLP
T1 sequence (P41143 whole entry): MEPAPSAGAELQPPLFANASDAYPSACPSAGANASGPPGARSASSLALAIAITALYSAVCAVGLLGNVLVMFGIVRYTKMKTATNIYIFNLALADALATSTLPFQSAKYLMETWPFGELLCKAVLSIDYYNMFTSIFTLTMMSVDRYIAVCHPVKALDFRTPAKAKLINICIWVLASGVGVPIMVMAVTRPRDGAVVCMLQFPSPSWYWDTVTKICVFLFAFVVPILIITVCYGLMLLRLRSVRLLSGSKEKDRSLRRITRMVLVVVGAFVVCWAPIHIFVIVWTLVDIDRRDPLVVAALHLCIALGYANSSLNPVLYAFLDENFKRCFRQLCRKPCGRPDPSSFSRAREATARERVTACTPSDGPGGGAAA
T5 sequence (P31423 whole entry): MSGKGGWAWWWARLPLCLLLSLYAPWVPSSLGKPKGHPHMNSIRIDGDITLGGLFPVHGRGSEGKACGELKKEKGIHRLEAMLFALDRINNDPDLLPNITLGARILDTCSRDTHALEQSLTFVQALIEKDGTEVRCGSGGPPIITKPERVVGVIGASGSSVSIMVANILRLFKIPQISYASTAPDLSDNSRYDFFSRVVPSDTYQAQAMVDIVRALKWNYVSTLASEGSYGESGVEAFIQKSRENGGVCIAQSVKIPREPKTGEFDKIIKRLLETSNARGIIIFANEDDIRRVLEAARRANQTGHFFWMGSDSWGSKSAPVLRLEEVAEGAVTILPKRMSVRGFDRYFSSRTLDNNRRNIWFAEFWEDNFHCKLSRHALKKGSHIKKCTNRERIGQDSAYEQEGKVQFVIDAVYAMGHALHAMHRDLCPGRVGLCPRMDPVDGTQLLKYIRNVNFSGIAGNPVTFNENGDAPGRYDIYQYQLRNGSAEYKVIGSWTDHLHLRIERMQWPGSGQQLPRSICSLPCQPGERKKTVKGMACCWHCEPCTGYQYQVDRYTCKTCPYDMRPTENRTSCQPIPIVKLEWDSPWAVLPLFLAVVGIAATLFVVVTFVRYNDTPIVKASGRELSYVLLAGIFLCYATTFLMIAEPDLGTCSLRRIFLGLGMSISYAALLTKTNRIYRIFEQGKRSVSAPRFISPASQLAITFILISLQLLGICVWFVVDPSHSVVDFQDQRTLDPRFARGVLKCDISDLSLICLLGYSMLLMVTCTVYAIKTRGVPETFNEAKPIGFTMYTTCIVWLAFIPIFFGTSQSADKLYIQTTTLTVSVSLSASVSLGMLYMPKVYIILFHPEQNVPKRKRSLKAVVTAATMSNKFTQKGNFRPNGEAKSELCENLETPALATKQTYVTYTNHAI
Sequence of Metabotropic glutamate receptor 3 (P31422 whole entry): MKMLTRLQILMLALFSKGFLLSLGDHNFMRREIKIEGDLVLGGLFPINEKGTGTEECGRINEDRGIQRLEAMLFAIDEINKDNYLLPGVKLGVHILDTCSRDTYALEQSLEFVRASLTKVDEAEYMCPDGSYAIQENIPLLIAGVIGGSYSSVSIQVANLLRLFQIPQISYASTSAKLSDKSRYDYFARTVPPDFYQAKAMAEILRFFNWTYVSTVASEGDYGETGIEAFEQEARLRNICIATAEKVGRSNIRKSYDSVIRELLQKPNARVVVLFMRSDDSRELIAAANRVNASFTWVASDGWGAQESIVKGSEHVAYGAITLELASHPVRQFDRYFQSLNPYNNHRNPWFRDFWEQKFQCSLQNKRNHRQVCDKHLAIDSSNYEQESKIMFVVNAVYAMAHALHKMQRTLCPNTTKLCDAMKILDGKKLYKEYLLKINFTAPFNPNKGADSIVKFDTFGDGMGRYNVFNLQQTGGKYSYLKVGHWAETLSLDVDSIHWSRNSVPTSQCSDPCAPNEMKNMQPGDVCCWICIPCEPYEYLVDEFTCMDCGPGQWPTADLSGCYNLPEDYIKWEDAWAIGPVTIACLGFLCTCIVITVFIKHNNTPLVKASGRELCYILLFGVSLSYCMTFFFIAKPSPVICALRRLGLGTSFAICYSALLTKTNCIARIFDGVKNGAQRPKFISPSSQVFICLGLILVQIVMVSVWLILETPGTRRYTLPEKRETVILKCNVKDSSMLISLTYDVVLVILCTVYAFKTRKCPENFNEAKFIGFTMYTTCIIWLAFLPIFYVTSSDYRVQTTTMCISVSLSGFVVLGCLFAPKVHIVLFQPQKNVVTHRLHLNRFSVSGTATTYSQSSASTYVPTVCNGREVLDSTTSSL
Sequence of Metabotropic glutamate receptor 6 (O15303 whole entry): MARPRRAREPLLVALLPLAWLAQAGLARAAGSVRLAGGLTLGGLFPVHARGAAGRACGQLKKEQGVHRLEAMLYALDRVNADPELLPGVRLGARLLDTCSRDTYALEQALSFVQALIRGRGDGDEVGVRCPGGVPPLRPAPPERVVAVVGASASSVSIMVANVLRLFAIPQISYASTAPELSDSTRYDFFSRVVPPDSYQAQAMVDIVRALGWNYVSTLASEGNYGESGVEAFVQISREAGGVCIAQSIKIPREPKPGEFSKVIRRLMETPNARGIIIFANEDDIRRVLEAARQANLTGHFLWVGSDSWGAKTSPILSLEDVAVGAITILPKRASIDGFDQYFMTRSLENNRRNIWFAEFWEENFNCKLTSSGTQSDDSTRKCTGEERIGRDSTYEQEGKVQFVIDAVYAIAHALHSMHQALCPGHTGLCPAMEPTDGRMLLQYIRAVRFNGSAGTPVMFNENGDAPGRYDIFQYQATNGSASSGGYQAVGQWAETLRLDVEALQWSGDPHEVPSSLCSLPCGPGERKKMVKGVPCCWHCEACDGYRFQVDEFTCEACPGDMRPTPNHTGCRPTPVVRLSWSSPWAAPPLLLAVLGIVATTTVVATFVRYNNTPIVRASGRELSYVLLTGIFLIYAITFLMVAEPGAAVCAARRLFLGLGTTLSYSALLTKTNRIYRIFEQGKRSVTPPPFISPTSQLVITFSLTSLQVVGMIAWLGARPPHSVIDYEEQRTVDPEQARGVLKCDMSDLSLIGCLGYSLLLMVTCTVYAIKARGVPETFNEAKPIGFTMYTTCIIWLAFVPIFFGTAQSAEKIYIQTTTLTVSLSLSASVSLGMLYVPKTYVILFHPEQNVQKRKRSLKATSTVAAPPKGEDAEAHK
Sequence of Metabotropic glutamate receptor 2 (P31421 whole entry): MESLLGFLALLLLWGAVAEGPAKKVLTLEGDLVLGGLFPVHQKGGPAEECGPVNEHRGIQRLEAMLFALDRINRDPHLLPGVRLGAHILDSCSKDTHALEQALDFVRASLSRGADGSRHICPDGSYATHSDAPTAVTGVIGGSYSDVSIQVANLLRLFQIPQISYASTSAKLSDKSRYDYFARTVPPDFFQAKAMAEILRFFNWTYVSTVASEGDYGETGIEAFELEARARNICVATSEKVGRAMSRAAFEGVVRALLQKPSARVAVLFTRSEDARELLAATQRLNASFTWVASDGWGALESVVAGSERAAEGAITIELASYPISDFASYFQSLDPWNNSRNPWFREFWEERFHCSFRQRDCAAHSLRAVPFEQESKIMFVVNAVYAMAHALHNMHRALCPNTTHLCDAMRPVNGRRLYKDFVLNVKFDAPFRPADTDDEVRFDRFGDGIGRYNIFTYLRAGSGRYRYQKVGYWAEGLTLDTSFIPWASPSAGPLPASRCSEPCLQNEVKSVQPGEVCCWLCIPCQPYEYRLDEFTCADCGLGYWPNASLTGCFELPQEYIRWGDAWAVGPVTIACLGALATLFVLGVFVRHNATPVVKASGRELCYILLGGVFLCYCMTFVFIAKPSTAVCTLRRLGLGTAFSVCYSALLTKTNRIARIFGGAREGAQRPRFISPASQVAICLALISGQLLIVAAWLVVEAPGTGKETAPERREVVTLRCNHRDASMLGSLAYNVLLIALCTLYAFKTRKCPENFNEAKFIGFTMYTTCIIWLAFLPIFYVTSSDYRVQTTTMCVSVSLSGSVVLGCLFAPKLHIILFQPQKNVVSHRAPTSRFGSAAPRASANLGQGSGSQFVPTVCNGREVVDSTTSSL

As a reminder, the IC50 is the point on the concentration scale where inhibition reaches its midpoint. For orientation: EC50 means the concentration that produces a half-maximal response. Regarding `Cc1cc(C)c(S(=O)(=O)NCc2ccc(C(=O)NCCN3Cc4ccccc4C3)cc2)c(C)c1`, the IC50 in experiment [1] was 13.9 µM (inactive); in [2] it was > 20 µM (inactive); in [5], > 32 µM (inactive); in [8] it was > 32 µM (inactive). In addition, the EC50 is > 32 µM (inactive) in [3], > 32 µM (inactive) in [4], > 32 µM (inactive) in experiment [6] and 4.97 µM (active) in experiment [7].

Regarding `NS(=O)(=O)c1cccc(NC(=O)CSc2nnc(-c3ccncc3)n2C2CC2)c1`, the IC50 in [9] is 2.34 µM (active); in experiment [10], 9.42 µM (active); in experiment [11], 17.1 µM (active).

On to `O=C(Nc1cccc(Cl)c1)c1ccccn1`, for which the EC50 in experiment [12] is 0.811 µM (inactive); in experiment [13], 1.25 µM (active); in experiment [14] it was 0.597 µM (active); in [15] it was 1.47 µM (inactive); in experiment [17], 1.24 µM (inactive); in experiment [18], 1.17 µM (inactive). The EC50 in experiment [19] was 0.295 µM (active); in experiment [20], 9.14 µM (inactive). Also, the “Activity EC50” value in experiment [16] turned out to be 163 µM.
